Measured values: ChEMBL document CHEMBL4602659, “β,β-Dimethylacrylshikonin Induces Apoptosis in Melanoma Cell Lines by NOXA Upregulation” (J Nat Prod, 2020)
The source made the active and inactive calls. The rule behind the calls is not given here.

What was measured:
[1] = test system: MUGMel1; assay: Cytotoxicity against human MUGMel1 cells assessed as reduction in cell viability after 48 hrs by EZ4U reagent based spectrophotometric method; format: functional; conditions: MUGMel1, 48 h
[2] = test system: SBcl2; assay: Cytotoxicity against human SBcl2 cells harboring NRAS Q61I mutant assessed as reduction in cell viability after 48 hrs by EZ4U reagent based spectrophotometric method; format: functional; conditions: SBcl2, 48 h
[3] = test system: SBcl2; assay: Cytotoxicity against human SBcl2 cells harboring NRAS Q61I mutant assessed as reduction in cell viability after 72 hrs by EZ4U reagent based spectrophotometric method; format: functional; conditions: SBcl2, 72 h
[4] = test system: MUGMel1; assay: Induction of apoptosis in human MUGMel1 cells assessed as early apoptotic cells at IC50 concentration after 6 hrs by Annexin V/SYTOX Green based flow cytometric analysis (reference value: 2.55%); format: functional
[5] = test system: MUGMel1; assay: Induction of apoptosis in human MUGMel1 cells assessed as necrotic cells at IC50 concentration after 6 hrs by Annexin V/SYTOX Green based flow cytometric analysis (reference value: 0.39%); format: functional
[6] = test system: MUGMel2; assay: Induction of apoptosis in human MUGMel2 cells assessed as viable cells at IC50 concentration after 6 hrs by Annexin V/SYTOX Green based flow cytometric analysis (reference value: 91.12%); format: functional
[7] = test system: MUGMel2; assay: Induction of apoptosis in human MUGMel2 cells assessed as early apoptotic cells at IC50 concentration after 6 hrs by Annexin V/SYTOX Green based flow cytometric analysis (reference value: 2.89%); format: functional
[8] = test system: SBcl2; assay: Induction of apoptosis in human SBcl2 cells assessed as early apoptotic cells at IC50 concentration after 6 hrs by Annexin V/SYTOX Green based flow cytometric analysis (reference value: 4.26%); format: functional
[9] = test system: SBcl2; assay: Induction of apoptosis in human SBcl2 cells assessed as necrotic cells at IC50 concentration after 6 hrs by Annexin V/SYTOX Green based flow cytometric analysis (reference value: 0.17%); format: functional
[10] = test system: WM164; assay: Induction of apoptosis in human WM164 cells assessed as early apoptotic cells at IC50 concentration after 6 hrs by Annexin V/SYTOX Green based flow cytometric analysis (reference value: 3.01%); format: functional
[11] = test system: WM164; assay: Induction of apoptosis in human WM164 cells assessed as late apoptotic cells at IC50 concentration after 6 hrs by Annexin V/SYTOX Green based flow cytometric analysis (reference value: 1.41%); format: functional
[12] = test system: MUGMel1; assay: Induction of apoptosis in human MUGMel1 cells assessed as necrotic cells at IC50 concentration after 24 hrs by Annexin V/SYTOX Green based flow cytometric analysis (reference value: 0.42%); format: functional
[13] = test system: SBcl2; assay: Induction of apoptosis in human SBcl2 cells assessed as viable cells at IC50 concentration after 24 hrs by Annexin V/SYTOX Green based flow cytometric analysis (reference value: 73.08%); format: functional
[14] = test system: SBcl2; assay: Induction of apoptosis in human SBcl2 cells assessed as early apoptotic cells at IC50 concentration after 6 hrs by Annexin V/SYTOX Green based flow cytometric analysis (reference value: 3.77%); format: functional
[15] = test system: SBcl2; assay: Induction of apoptosis in human SBcl2 cells assessed as late apoptotic cells at IC50 concentration after 24 hrs by Annexin V/SYTOX Green based flow cytometric analysis (reference value: 22.96%); format: functional
[16] = test system: WM164; assay: Induction of apoptosis in human WM164 cells assessed as viable cells at IC50 concentration after 24 hrs by Annexin V/SYTOX Green based flow cytometric analysis (reference value: 94.62%); format: functional
[17] = test system: WM793; assay: Induction of apoptosis in human WM793 cells assessed as necrotic cells at IC50 concentration after 24 hrs by Annexin V/SYTOX Green based flow cytometric analysis (reference value: 0.17%); format: functional
[18] = test system: B16-F0; assay: Cytotoxicity against mouse B16F0 cells assessed as reduction in cell viability after 48 hrs by MTT assay; format: functional, cell-based; conditions: B16F0, 48 h
[19] = test system: SBcl2; assay: Induction of apoptosis in human SBcl2 cells assessed as increase in caspase -3 activity at IC50 concentration after 24 hrs by Alexa Fluor 647 antibody based flow cytometric analysis; format: functional, cell-based
[20] = test system: WM164; assay: Induction of apoptosis in human WM164 cells assessed as increase in caspase -3 activity at IC50 concentration after 24 hrs by Alexa Fluor 647 antibody based flow cytometric analysis; format: functional, cell-based
[21] = test system: MUGMel1; assay: Induction of apoptosis in human MUGMel1 cells assessed as increase in caspase -3 activity at IC50 concentration after 24 hrs in presence of caspase -inhibitor by Alexa Fluor 647 antibody based flow cytometric analysis; format: functional, cell-based
[22] = test system: SBcl2; assay: Antitumour activity against human SBcl2 cells xenografted in NU(NCr)-Foxn1 mouse assessed as increase in caspase -activity at 2 ug/g administered for three consecutive days with 1 day interval for four cycle by hematoxylin and eosin staining based microscopic analysis; format: functional, cell-based
[23] = test system: WM164; assay: Induction of apoptosis in human WM164 cells assessed as up regulation of NOXA protein expression at IC50 concentration after 24 hrs by Western blot analysis; format: functional, cell-based
[24] = test system: MUGMel2; assay: Induction of apoptosis in human MUGMel2 cells assessed as up regulation of NOXA protein expression at IC50 concentration after 24 hrs by Western blot analysis; format: functional, cell-based
[25] = test system: WM793; assay: Induction of apoptosis in human WM793 cells assessed as effect on BAX mRNA expression at IC50 concentration after 6 to 24 hrs by RT-qPCR analysis; format: functional, cell-based
[26] = test system: WM164; assay: Induction of apoptosis in human WM164 cells assessed as effect on BAD mRNA expression at IC50 concentration after 6 to 24 hrs by RT-qPCR analysis; format: functional, cell-based
[27] = test system: MUGMel2; assay: Induction of apoptosis in human MUGMel2 cells assessed as effect on BAD mRNA expression at IC50 concentration after 6 to 24 hrs by RT-qPCR analysis; format: functional, cell-based
[28] = test system: WM164; assay: Induction of apoptosis in human WM164 cells assessed as up regulation of PUMA at IC50 concentration after 6 to 24 hrs by RT-qPCR analysis; format: functional, cell-based
[29] = test system: WM793; assay: Induction of apoptosis in human WM793 cells assessed as up regulation of NOXA at IC50 concentration after 6 to 24 hrs by RT-qPCR analysis; format: functional, cell-based
[30] = test system: SBcl2; assay: Induction of apoptosis in human SBcl2 cells assessed as up regulation of NOXA at IC50 concentration after 6 to 24 hrs by RT-qPCR analysis; format: functional, cell-based
[31] = test system: WM793; assay: Induction of apoptosis in human WM793 cells assessed as effect on BAD protein expression at IC50 concentration after 24 hrs by Western blot analysis; format: functional, cell-based
[32] = test system: SBcl2; assay: Induction of apoptosis in human SBcl2 cells assessed as effect on PUMA protein expression at IC50 concentration after 24 hrs by Western blot analysis; format: functional, cell-based
[33] = test system: SBcl2; assay: Induction of apoptosis in human SBcl2 cells assessed as effect on BAD protein expression at IC50 concentration after 24 hrs by Western blot analysis; format: functional, cell-based
[34] = test system: MUGMel1; assay: Induction of apoptosis in human MUGMel1 cells assessed as effect on BAX protein expression at IC50 concentration after 24 hrs by Western blot analysis; format: functional, cell-based
[35] = test system: WM164; assay: Antitumour activity against human WM164 cells xenografted in NU(NCr)-Foxn1 mouse assessed as decrease in tumour size at 2 ug/g administered for three consecutive days with 1 day interval for four cycle; format: functional, cell-based

SMILES: CC(C)=CC[C@@H](OC(=O)C=C(C)C)C1=CC(=O)c2c(O)ccc(O)c2C1=O [DIMETHYLACRYLSHIKONIN]
- IC50 [1]: 1.1 µM
- IC50 [2]: 1.1 µM
- IC50 [3]: 1.2 µM
- Activity [4]: 3.51%
- Activity [5]: 0.11%
- Activity [6]: 75.52%
- Activity [7]: 10.56%
- Activity [8]: 8.44%
- Activity [9]: 0.06%
- Activity [10]: 2.47%
- Activity [11]: 8.65%
- Activity [12]: 0.15%
- Activity [13]: 8.43%
- Activity [14]: 16.44%
- Activity [15]: 77.12%
- Activity [16]: 75.03%
- Activity [17]: 0.22%
- IC50 [18]: 1.2 to 5.1 µM
- Activity [19]: Active
- Activity [20]: Active
- Activity [21]: inactive
- Activity [22]: Active
- Activity [23]: Active
- Activity [24]: Active
- Activity [25]: inactive
- Activity [26]: inactive
- Activity [27]: inactive
- Activity [28]: Active
- Activity [29]: inactive
- Activity [30]: Active
- Activity [31]: inactive
- Activity [32]: inactive
- Activity [33]: inactive
- Activity [34]: inactive
- Activity [35]: inactive
